Data set [1] is described as follows: self-administered questionnaire on lithium-induced side-effects, stratified by GSK3B and MAPT haplotype. It is filed as in vivo, human. As to conditions: for Odds Ratio, hand tremor present vs absent (pooled High GSKΔexon9 and Low GSKΔexon9+11 haplotypes vs others): lithium treatment; for mean overall side-effect score (SE score): patients administered lithium, 24 items, maximum total score 96. The method, then:
Participants (n=84) suffering from a neurological disease who had been administered lithium as a therapeutic were assessed for the prevalence and pattern of lithium-induced side-effects using a self-administered questionnaire. This questionnaire was a modified version of the data collection form from a clinical trial, asking participants to rate 24 side-effect items as ‘Not present’, ‘Mild’, ‘Moderate’, ‘Severe’ and ‘Very Severe’. The 24 items listed include: nausea, vomiting, diarrhea, constipation, weight gain, weight loss, dizziness or light-headedness, blurred vision, hand tremor, muscle weakness, slurred speech, lack of coordination or unsteady gait, poor concentration mental slowing or confusion, forgetfulness or difficulty with memory/recall, drowsiness or sleepiness, worsening mood symptoms, skin rash, hair loss, thirst, dry mouth, metallic taste in mouth, loss of ability to taste food, need to pass urine much more frequently or more urgently, urinary incontinence. An overall side-effect score (SE score) was calculated for each patient based on the above 24 items and their respective grading. A score of zero was given for an absent side effect and increased to a score of 4 for a very severe side effect to give a maximum total score of 96 for each patient.
Each individual was genotyped and classified as having 0, 1 or 2 copies of the disease ‘risk’ GSK3B haplotypes (A-T-C, T-C-C and A-C-T) based on the three functional polymorphisms rs375557, rs334558 and rs6438552. In the subset of patients having a GSK-3B ‘risk’ haplotype and at least one H2 MAPT haplotype, a lower SE score was observed (12.3±2.2) compared to patients with no ‘risk’ haplotype (14.6±2.0).
The relationship between the ‘risk’ haplotypes in GSK3B and common side effect of lithium therapy, hand tremor, was then examined, the results of which are shown in Table 8. […] This information is pertinent, because lithium, which is a therapeutic agent for a number of disorders including bipolar affective disorders and Alzheimer's disease, has significant side effects. Accordingly, assays that detect the presence of a GSK-3B ‘risk’ haplotype optionally combined with detection of a MAPT H2 haplotype are useful for determining subjects likely to respond to treatment and/or that are unlikely to develop a side-effect as a result of treatment.

The target in data set [2] is endogenous Tau of COS-7 cells. As to the kind of experiment: cell-based or functional assay.

Here are results for 2 compounds from patent US20080152589A1, “Diagnostics and Therapeutics of Neurological Disease” (priority 2006, published 2008).

Turning to `[Li]` [lithium], the figures for the “Odds Ratio, hand tremor present vs absent (pooled High GSKΔexon9 and Low GSKΔexon9+11 haplotypes vs others)” value in data set [1] (MAPT H1/H1), in data set [1] (MAPT H1/H2 + H2/H2 (at least one H2 haplotype)) and in data set [1] (all MAPT haplotypes) were 1.32, 0.24 and 0.57, respectively. Further, the “mean overall side-effect score (SE score)” value is 12.3±2.2 in data set [1] (GSK-3B 'risk' haplotype and at least one H2 MAPT haplotype); 14.6±2.0 in data set [1] (no 'risk' haplotype).
Regarding “GSKΔexon9+11 (GSK-3β splice isoform lacking exons 9 and 11) (from UniProt P49841 1-420) (enzyme)”, the levels of Tau [pSer396] by ELISA in transfected COS-7 cells, compared with the other GSK-3β cDNAs in data set [2] came to 2.5 fold.
